Ends that are not written are not given here. FAM = fluorescein label
Experiments:
atherosclerotic plaques [1] = experiment: Homing of intravenously injected FAM-labeled peptides to plaques, fluorescence histology of aorta sections; type: in vivo, mice (ApoE-null); details: for accumulation in plaque tissue (fluorescence of aorta sections): atherosclerotic ApoE-null mice, 100 μg FAM-peptide intravenously, 1 hour circulation
Text: (§1) Atherosclerotic plaques in male and female mice homozygous for the ApoetmlUnc mutation (ApoE-null mice) (The Jackson Laboratory) were induced by maintaining the mice on a high fat diet (Reddick et al., Arterioscler. Thromb. 14:141-147 (1994); Maeda et al., Atherosclerosis 195:75-82 (2007)) for 6 to 8 months. Healthy aortas were obtained from age-matched C7BL/6 wild-type mice fed on a normal diet. The mice were housed and all procedures performed with the approval and according to standards of the University of California, Santa Barbara and University of California, Davis Institutional Animal Care and Use Committees. To test peptide homing, the mice were injected intravenously via retro-orbital under isoflurane inhalation (isoflurane 2% to 3% vol/vol+2 L/min O2) anesthesia and, when applicable, subsequently perfused with high glucose DMEM through the left ventricle to remove unbound reagent. Tissues were excised and left unfixed or fixed with 4% paraformaldehyde.
Fresh frozen OCT-embedded tissue was sectioned at 7 μm, fixed with ice cold acetone, blocked with 4% serum in PBS, and stained with antibodies. The following antibodies were used: anti-mouse p32 (rabbit polyclonal; (Fogal et al., supra (2008)), CD68 (rat monoclonal, eBioscience), CD11b (rat monoclonal, eBioscience), CD31 (rat monoclonal, eBioscience), podoplanin (hamster monoclonal, eBioscience), LYVE-1 (rat monoclonal, eBioscience), anti-FITC-HRP (goal polyclonal, ACRIS). Purified rat IgG2a K isotype control (BD Pharmingen), normal rabbit IgG (R&D) and normal goat IgG (R&D) were used as controls. The following secondary antibodies from Invitrogen were used for detection: goat anti-rat 488/546, goat anti-rabbit 488/546, donkey anti-goat 488/546, goat anti-hamster 546 and goat anti-rat 647. Primary antibodies were incubated for 1 to 4 hours at room temperature, or at 4° C. to detect cell surface expression. Stained tissue sections were mounted in Vectorshield DAPI-containing mounting media (Vector lab). […]
Tissue sections were examined under a FluoView™ 500 confocal laser-scanning microscope (Olympus) or BX60 fluorescence microscope with MiroFire camera (Olympus). Whole-tissue uptake of fluorescein-labeled peptides following in vivo circulation was imaged using a 530-nm viewing filter, Illumatool light source (Light Tools Research) and recorded with a Canon XTi DSLR camera.
To detect peptide homing to plaques, the distribution of intravenously injected peptides that had been labeled with fluorescein ([…]; FAM) were analyzed. […]
Atherosclerotic mice were injected with 100 μg of FAM-LyP-2 and the probe was allowed to circulate for 1 hour. Following 1 hour of circulation, the aorta was collected and the peptide was detected in tissue sections by fluorescence detection.

[2] = system: primary cells released from plaques; experiment: Peptide binding ex vivo (FACS); type: cell-based, mice (ApoE-null); details: 1 nmol FAM-peptide, 10 min on ice
Procedure: (§2) Dead cells were first removed from the cell suspension released from aorta, isolated macrophages from 4T1 tumors and spleen and bone marrow cells using Dead cell removal kit (Miltenyi Biotec). Cells were incubated with 1 nmol of either FAM-LyP-1 or FAM-ARAL (SEQ ID NO:5) for 10 min on ice. After washing, the cell pellets were resuspended in buffer containing 1 μg propidium iodide. Cells positive for FAM and propidium iodide staining were quantified on GUAVA FACS instrument (Millipore) and data were analyzed using FCS Express Version 3 (De Novo Software). The % of viable cells after dead cell removal in each case was >75%.

[3] = system: CD11b-positive macrophages from 4T1-tumors; experiment: Peptide binding ex vivo (FACS); type: cell-based, mice (BALB/c); details: 1 nmol FAM-peptide, 10 min on ice
Procedure: (§3) To produce 4T1 tumors, normal female BALB/c mice were orthotopically injected into the mammary fat pad with 1×10^6 4T1 cells suspended in 100 μL of PBS. All animal experimentation received approval from the Animal Research Committee of University of California, Santa Barbara. Fully grown 4T1 tumors and control spleen were excised from the mice two weeks after inoculation, minced and incubated with tissue digestion cocktail containing 2 mg/mL Collagenase IV (Worthington Biochem Corp) and 1 mg/mL DNAse 1 (Sigma) solution in high glucose DMEM media (Gibco) at 37° C. for 1 hour. Cells were passed through 70 μm nylon mesh cell strainer (BD). CD11b-positive macrophages were isolated using the MACS CD11b-positive microbeads (Miltenyi Biotec).
as §2

[4] = system: monocytes/macrophages isolated from spleen; experiment: Peptide binding ex vivo (FACS); type: cell-based, mice; details: 1 nmol FAM-peptide, 10 min on ice
Procedure: as §3, §2

bone marrow cells = experiment: Peptide binding ex vivo (FACS); type: cell-based, mice (ApoE); details: 1 nmol FAM-peptide, 10 min on ice
Procedure: Bone marrow cells were isolated from the tibias and femurs of ApoE mice on high fat diet by flushing high glucose DMEM media (Gibco) using an 18 gauge needle and passed through a 70 μm nylon mesh cell strainer (BD).
as §2

4T1 tumors = experiment: Treatment of 4T1 tumor mice with peptide, effect on tumor macrophages; type: in vivo, mice (BALB/c); details: 60 μg daily tail vein injections for 12 days, versus control peptide
Procedure: The effect of LyP-1 peptide treatment of mice with tumors was tested. To produce 4T1 breast cancer tumors, normal female BALB/c mice were orthotopically injected into the mammary fat pad with 1×10^6 4T1 cells suspended in 100 μL of PBS. The mice were treated with daily tail vein injections of 60 μg of LyP-1 or control peptide ([…]; SEQ ID NO:6) for 12 days. […] Cell suspensions were prepared from 4T1 tumors from mice treated with LyP-1 or the control peptide. The tumors were incubated for 1 hour at 37° C. in a tissue digestion cocktail containing 2 mg/mL Collagenase IV (Worthington Biochem Corp) and 1 mg/mL DNAse 1 (Sigma) in high glucose DMEM media (Gibco). The resulting cell suspension was passed through 70 μm nylon mesh cell strainer (BD), and the live cells were double stained for cell surface p32 (rabbit anti-mouse p32, Fogal et al., supra (2008)) and macrophages (rat anti-mouse CD11b, ebioscience) and analyzed by FACS.

dermatitis = experiment: Treatment of dermatitis in ApoE-null mice on high-fat diet; type: in vivo
Procedure: The effect of LyP-1 treatment on dermatitis was tested. ApoE-null mice that were on a high-fat diet and suffered from severe dermatitis refractory to topical antibiotic treatment were treated with intraperitoneal injections of 200 μg of LyP-1 or control peptide ([…]; SEQ ID NO:6) three times a week for one month (while continuing their diet). The condition of the skin before and after the treatment was recorded in photographs. […] Thus, LyP-1 treatment improves dermatitis.
The effect of LyP-1 on skin dermatitis correlates with reduced in p32 expression and macrophage accumulation. Mice treated as above in FIG. 19 were intravenously injected with 100 μL of 1 mM fluorescein-labeled LyP-1 and peptide was allowed to circulate for 2 hours. Sections of skin biopsies obtained before and after 4 weeks of LyP-1 treatment were analyzed.

atherosclerotic plaques [5] = experiment: Effect of treatment on plaque formation; type: in vivo, mice (ApoE null); details: 200 μg intraperitoneally three times a week for one month, high-fat diet
Procedure: (§4) The effect of LyP-1 treatment on plaque formation was tested. ApoE null mice fed a high-fat diet for 5 months were treated with intraperitoneal injections of 200 μg of LyP-1 or control peptide ([…]; SEQ ID NO:6) three times a week for one month (while continuing their diet).

plaque macrophages = experiment: Effect of treatment on plaque macrophages (FACS of cells released from plaques); type: in vivo, mice (ApoE null); details: after 4 weeks of treatment, versus control-treated aortas
Procedure: as §4
The effect of LyP-1 treatment on plaque macrophages was tested.

mitochondrial membranes = details: concentration of 10 μM; cited from earlier work
[6] = system: cells released from plaques; experiment: FACS analysis of cells released from plaques after in vivo circulation of FAM-peptides; design: species or system mice (ApoE-null); details: for % of FAM positive cells among cells released from plaques: after 4 hours in vivo circulation
Text: as §1
Cells from plaques and other tissues were released into suspension by 2-hour incubation at 37° C. in a tissue digestion cocktail containing 450 U/mL collagenase type 1 (Worthington Biochemical), 1 mg/mL soybean trypsin inhibitor (Worthington Biochemical), 4.7 U/mL elastase (Worthington Biochemical), 1 mg/mL DNase 1 (Sigma Aldrich) and 0.5% fetal calf serum (FCS). CD11b PE-Cy5 (rat monoclonal, eBioscience) was used to identify monocytes/macrophages. Positive cells were quantified on GUAVA FACS instrument (Millipore) and data were analyzed using FCS Express Version 3 (De Novo Software).
To detect peptide homing to plaques, the distribution of intravenously injected peptides that had been labeled with fluorescein ([…]; FAM) were analyzed. […] Staining with an anti-fluorescein antibody confirmed the presence of LyP-1 in the plaques. For comparison, mice were also injected with a peptide previously shown to home to plaques, CREKA (SEQ ID NO:4) (Peters et al., Proc. Natl. Acad. Sci. USA 106:9815-9819 (2009)). […]

[7] = system: porcine iliofemoral arteries; details: arteries infected with adenoviral vector encoding tk, then exposure to ganciclovir; cited from earlier work
[8] = after 4 weeks of treatment, versus control-treated mice
[9] = 100 μL of 1 mM intravenously, 2 hours circulation

CGNKRTRGC (disulfide (positions not given here); not fully specified (bridges); also: cyclic, kind not given here) [LyP-1]
accumulation in healthy aortas and non-aortic tissues of the atherosclerotic mice (atherosclerotic plaques [1]; intravenous FAM-peptide): no significant accumulation | binding to primary cells released from plaques [2]: significant binding | binding to CD11b-positive macrophages from 4T1-tumors [3]: significant binding | binding to monocytes/macrophages isolated from spleen [4]: little binding | binding to bone marrow cells (bone marrow cells): little binding | macrophages positive for cell surface p32 in 4T1 tumors (4T1 tumors): reduced | total number of macrophages (CD11b-positive cells) in 4T1 tumors (4T1 tumors): reduced | skin condition (dermatitis) (dermatitis; 200 μg intraperitoneally three times a week for one month): significant improvement of their skin condition | cells positive for CD11b and p32 in skin (dermatitis; [8]): smaller numbers of cells positive for CD11b and p32 | skin thickness of healed dermatitis skin (dermatitis; [8]): reduced thickness | plaque formation in excised ascending and descending aorta (atherosclerotic plaques [5]): reduced plaque formation | percentage of total macrophages (p32-positive and negative) among cells released from plaques (plaque macrophages): lower percentage of total macrophages

FAM-CREKA: CREKA peptide labeled with fluorescein (FAM) ({FAM}-CREKA) [reference compound]
accumulation in plaque tissue (fluorescence of aorta sections) (atherosclerotic plaques [1]): essentially confined to the surface of the plaques

FAM-LyP-1: LyP-1 peptide labeled with fluorescein (FAM) ({FAM}-CGNKRTRGC; disulfide (positions not given here); not fully specified (bridges); also: cyclic, kind not given here)
accumulation in plaque tissue (fluorescence of aorta sections) (atherosclerotic plaques [1]): extensive accumulation of FAM-LyP-1 inside the plaque tissue | peptide homing to healed dermatitis skin from LyP-1-treated mice (dermatitis; [9]): attenuated LyP-1 homing | peptide homing to inflamed skin from control-treated mice (dermatitis; [9]): robust LyP-1 homing | peptide homing to normal skin (dermatitis; [9]): no LyP-1 homing

D(KLAKLAK)2 (KLAKLAKKLAKLAK; D-amino acids)
mitochondrial swelling (mitochondrial membranes): marked mitochondrial swelling

CREKA
CD11b-positive plaque cells positive for peptide uptake ([6]; 4 hours after intravenous injection): taken up by a small number of CD11b-negative cells | % of FAM positive cells among cells released from plaques [6]: 18.1±4.6%

Nc1nc(O)c2ncn(COC(CO)CO)c2n1 [ganciclovir]
reduction of neointimal thickening following balloon injury [7]: 50-87%

FAM-ARALPSQRSR: control peptide ARALPSQRSR labeled with FAM ({FAM}-ARALPSQRSR) [reference compound]
accumulation in plaque tissue (fluorescence of aorta sections) (atherosclerotic plaques [1]): did not accumulate in the plaques

ARALPSQRSR
% of FAM positive cells among cells released from plaques [6]: 7.5±4.1%

Source: patent publication US9061079B2, “Peptides that home to atherosclerotic plaques and methods of use” (Sanford-Burnham Medical Research Institute, priority 2011, dated 2015)
